This is an account of results in ChEMBL document CHEMBL1131433, “The bioactive conformation of aminoalkylindoles at the cannabinoid CB1 and CB2 receptors: insights gained from (E)- and (Z)-naphthylidene indenes” (J Med Chem, 1998).

In general, Emax refers to the size of the effect at its maximum, as opposed to the concentration needed. Usually EC50 stands for the concentration giving half of the maximal effect.

For the first assay, the species on record is Cavia porcellus. Briefly: Compound was evaluated for maximum inhibition of electrically evoked contractions of the myenteric plexus-longitudinal muscle of the Guinea pig small intestine. The conditions noted are these: Muscle tissue. It counts as functional.
The compound `Cc1c(C(=O)c2cccc3ccccc23)c2cccc3c2n1[C@H](CN1CCOCC1)CO3` [WIN-552122] showed an Emax of 61.9%.

The species entered for another assay is Cavia porcellus. Briefly: Compound was evaluated for inhibition of electrically evoked contractions of the myenteric plexus-longitudinal muscle of the Guinea pig small intestine. It counts as functional. The conditions noted are these: Muscle tissue.
In turn, `CC1=C(CCN2CCOCC2)c2ccccc2C1=Cc1cccc2ccccc12` [listing 1 of 2 here] returned an EC50 above 3160 nM. On the same count and under the same terms, the value for `CC1=C(CCN2CCOCC2)c2ccccc2C1=Cc1cccc2ccccc12` [listing 2 of 2 here] was 52.9 nM. Still for that read-out and setting: the value for `C1=C(CCN2CCOCC2)c2ccccc2/C1=C\c1cccc2ccccc12` was 283 nM; that for `Cc1c(C(=O)c2cccc3ccccc23)c2cccc3c2n1[C@H](CN1CCOCC1)CO3` [WIN-552122] was 4.92 nM; that for `C1=C(CCN2CCOCC2)c2ccccc2/C1=C/c1cccc2ccccc12` was 6.57 nM.
